Source: US10849901B2, “Arf6 inhibitors and methods of synthesis and use thereof” (Navigen, Inc., priority 2014, dated 2020)
Like-named read-outs stand apart in the source and are kept apart here.

Target: Arf6 (Homo sapiens (Human), UniProt P62330)
Assay: Fluorometric assay for Arf6 nucleotide exchange catalyzed by ARNO Sec7 domain (GTP-BODIPY FL)
Format: biochemical
Method: FIGS. 1A-1D: Fluorometric high throughput assay for Arf6 nucleotide exchange catalyzed by ARNO Sec7 domain. FIG. 1A: Principle of the assay. FIG. 1B: SDS-PAGE analysis of N-terminally His-tagged Arf6(14-175) and ARNO(50-255) purified from the E. coli cultures by immobilized metal affinity chromatography. FIG. 1C: Correlation between signal intensity and ARNO concentration. The assay was performed using 50 mM Tris-HCl, pH 7.5, 1 mM MgCl2, 0.01% TX-100, 1% DMSO, 50 nM GTP-BODIPY FL, supplemented with ARNO-Sec7 at indicated concentrations in the absence or in the presence of 0.2 μM Arf6-GDP. Fluorescence intensities were monitored using a Synergy 4 plate reader (BioTek) at the excitation and emission wavelengths of 490 nm and 520 nm, respectively. FIG. 1D: Time course of apparent inhibitory potency of GDP. The assay was performed in automated mode using a Matrix PlateMate liquid handler.
The primary biochemical assay uses a fluorometric assay for monitoring the replacement of bound nucleotide with a fluorogenic GTP derivative bearing a BODIPY FL moiety, allowing for the identification of compounds that can inhibit this exchange (see FIG. 1A). In certain embodiments, the methods disclosed herein may exploit the reduction of intramolecular fluorescence quenching of the modified nucleotide upon its binding to the target protein (see, e.g., McEwen D P, Gee K R, Kang H C, Neubig R R. Fluorescent BODIPY-GTP analogs: real-time measurement of nucleotide binding to G proteins. Anal Biochem. 2001 Apr. 1; 291(1): 109-17).
The fluorometric assay formatted for 96-well microtiter plates has passed quality control based on the following criteria: i) S/B ratio of 4-fold and Z′-factor of 0.61; ii) linear correlation between signal intensity and ARNO concentration (see FIG. 1C); iii) sufficiently reproducible inhibitory effects of the reference inhibitor GDP for assay durations up to at least 1 hour (see FIG. 1D); and iv) lack of apparent fluorescence quenchers among 400 randomly selected compounds. The assay is amenable to automation with a throughput of approximately 5,000 data points per 8 hours.

[1] = 20 nM Arf6 assay, read-out: IC50 (μM) 20 nM Arf6
[2] = 200 nM Arf6 assay, read-out: IC50 (μM) 200 nM Arf6

Sequence of Arf6 (P62330 14-175): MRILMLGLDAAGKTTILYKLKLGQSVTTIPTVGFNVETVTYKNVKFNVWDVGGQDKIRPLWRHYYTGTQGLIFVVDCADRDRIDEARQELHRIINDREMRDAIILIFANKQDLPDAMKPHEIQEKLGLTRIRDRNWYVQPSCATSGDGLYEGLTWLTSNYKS

| Compound | IC50 [1] | also measured |
| --- | --- | --- |
| CC(=O)Nc1ccc(-c2cc(=O)n3nc(C(F)(F)F)c(-c4ccc(Cl)cc4)c3[nH]2)cc1 [Compound 67] | 3.7 µM | – |
| Cc1nn2c(=O)cc(-c3ccc(NC(=O)c4ccccc4)cc3)[nH]c2c1-c1ccc(Cl)cc1 [Compound 48] | 2.4 µM | – |
| O=c1cc(-c2ccc([N+](=O)[O-])cc2O)[nH]c2c(-c3ccc(Cl)cc3)c(Cc3ccccc3)nn12 [Compound 37] | – | IC50 [2]: 1.7 µM |
| O=C1/C(=N/Nc2nc3ccccc3s2)C(c2ccccc2)=NN1c1nc(-c2ccccc2)cs1 [Compound 135] | 16 µM | – |
| CC(C)(C)c1nn2c(=O)cc(-c3ccccn3)[nH]c2c1-c1ccc(Cl)cc1 [Compound 82] | 6 µM | – |
| Cc1nn2c(=O)cc(-c3ccc(NC(=O)NCc4ccccc4)cc3)[nH]c2c1-c1ccc(Cl)cc1 [Compound 42] | 2.1 µM | – |
| Cc1nc2c(=O)[nH]c(-c3ccc([N+](=O)[O-])cc3)nn2c1-c1ccc(Cl)cc1 [Compound 69] | 4 µM | – |
| Cc1nn2c(=O)cc(-c3ccc([N+](=O)[O-])cc3)[nH]c2c1Cc1ccc(Cl)cc1 [Compound 81] | 6 µM | – |
| Cc1nn2c(=O)cc(-c3cccc(-c4cccnc4)c3)[nH]c2c1-c1ccc(Cl)cc1 [Compound 53] | 3 µM | – |
| CC(C)CC(=O)Nc1ccc(-c2cc(=O)n3nc(C(F)(F)F)c(-c4ccc(Cl)cc4)c3[nH]2)cc1 [Compound 35] | 1.7 µM | – |
| O=C1NC(=S)N(c2cccc(Cl)c2)C(=O)/C1=C/c1cccn1-c1ccc(Cl)cc1 [Compound 118] | – | IC50 (IC50 (μM) 200 nM Arf6, 200 nM Arf6 assay): 1.8 µM |
| O=c1cc(-c2ccc([N+](=O)[O-])cc2)[nH]c2c(-c3ccc(Cl)cc3)c(C(F)(F)F)nn12 [Compound 33] | 1.6 µM | IC50 [2]: 2.6 µM |
| O=c1cc(-c2ccc([N+](=O)[O-])cc2)[nH]c2c(-c3ccc(Cl)c(Cl)c3)c(Cc3ccccc3)nn12 [Compound 23] | 1.2 µM | – |
| Nc1ccc(-c2cc(=O)n3nc(C(F)(F)F)c(-c4ccc(Cl)cc4)c3[nH]2)cc1 [Compound 78] | 5.2 µM | – |
| CSc1ccc(Cc2nn3c(=O)cc(-c4ccc([N+](=O)[O-])cc4)[nH]c3c2-c2ccc(Cl)cc2)cc1 [Compound 54] | 3 µM | – |
| O=C1c2ccccc2C(=O)C1C1=NC2c3ccccc3OC2S1 (stereo not shown) [Compound 141] | – | IC50 [2]: 31 µM |
| O=c1cc(-c2ccc([N+](=O)[O-])cc2)[nH]c2c(-c3ccc(Cl)c(Cl)c3)c(C(F)(F)F)nn12 [Compound 7] | 0.66 µM | – |
| Fc1ccc(C2=CCN(c3nc(-c4ccncc4)nc4c3CNC4)CC2)cc1 [Compound 142] | 1.2 µM | – |
| CN(C)c1ccc(-c2cccc(-c3cc(=O)n4nc(C(F)(F)F)c(-c5ccc(Cl)cc5)c4[nH]3)c2)cn1 [Compound 19] | 1.1 µM | – |
| CCC(=O)Nc1cccc(-c2cc(=O)n3nc(C(F)(F)F)c(-c4ccc(Cl)cc4)c3[nH]2)c1 [Compound 61] | 3.3 µM | – |

| Compound | IC50 [1] | also measured |
| --- | --- | --- |
| CCNC(=O)Nc1ccc(-c2cc(=O)n3nc(C)c(-c4ccc(Cl)cc4)c3[nH]2)cc1 [Compound 97] | 11 µM | – |
| O=c1cc(Cc2ccccc2)[nH]c2c(-c3ccccc3)c(-c3ccccc3)nn12 [Compound 89] | – | IC50 [2]: 7 µM |
| N#Cc1cccc(-c2cc(=O)n3nc(C4CC4)c(-c4ccc(Cl)cc4)c3[nH]2)c1 [Compound 79] | 5.5 µM | – |
| Cc1nn2c(=O)cc(-c3ccc([N+](=O)[O-])cc3)[nH]c2c1-c1ccc(S(C)(=O)=O)cc1 [Compound 94] | 8.8 µM | – |
| COc1ccc(Cc2nn3c(=O)cc(-c4ccc([N+](=O)[O-])cc4)[nH]c3c2-c2ccccc2)cc1 [Compound 64] | – | IC50 [2]: 3.6 µM |
| O=c1[nH]c(CSc2ncnc3sccc23)nc2ccsc12 [Compound 138] | 17 µM | – |
| CC(c1ccccc1)c1nn2c(=O)cc(-c3ccc([N+](=O)[O-])cc3)[nH]c2c1-c1ccc(Cl)cc1 (stereo not shown) [Compound 28] | 1.4 µM | – |
| Cc1nn2c(=O)cc(C3CCCC3)[nH]c2c1-c1ccc(Cl)cc1 [Compound 106] | 16 µM | – |
| O=c1cc(-c2ccc([N+](=O)[O-])cc2)[nH]c2c(-c3ccc(Cl)cc3)c(CC3CCOCC3)nn12 [Compound 63] | 3.6 µM | – |
| O=c1cc(-c2ccc(-c3cccnc3)cc2)[nH]c2c(-c3ccc(Cl)cc3)c(C(F)(F)F)nn12 [Compound 17] | 1.1 µM | – |
| Cc1nn2c(=O)cc(-c3ccc([N+](=O)[O-])cc3)[nH]c2c1-c1ccc(Cl)cc1Cl [Compound 36] | 1.7 µM | – |
| COCC(=O)Nc1ccc(-c2cc(=O)n3nc(C(F)(F)F)c(-c4ccc(Cl)cc4)c3[nH]2)cc1 [Compound 75] | 4.4 µM | – |
| NC(=O)c1ccc(-c2cc(=O)n3nc(Cc4ccccc4)c(-c4ccc(Cl)cc4)c3[nH]2)cc1 [Compound 66] | 3.7 µM | IC50 [2]: 2.8 µM |
| O=C(O)c1ccccc1-c1cc(=O)n2nc(C(F)(F)F)c(-c3ccc(Cl)cc3)c2[nH]1 [Compound 92] | 8.1 µM | – |
| Fc1ccc(C2CC(c3cccs3)=NN2c2nc(-c3ccc(-c4ccccc4)cc3)cs2)cc1 (stereo not shown) [Compound 136] | 16 µM | – |
| O=c1cc(-c2cccc([N+](=O)[O-])c2)[nH]c2c(-c3ccc(Cl)cc3)c(C(F)(F)F)nn12 [Compound 21] | 1.2 µM | – |
| N#Cc1ccc(-c2cc(=O)n3nc(C(F)(F)F)c(-c4ccc(Cl)cc4)c3[nH]2)cc1 [Compound 40] | 1.9 µM | – |
| O=c1c(Cl)c(-c2ccc([N+](=O)[O-])cc2)[nH]c2c(-c3ccc(Cl)cc3)c(C(F)(F)F)nn12 [Compound 10] | 0.88 µM | – |
| Nc1scc2c(-c3nnc(Nc4ccccc4)s3)nn(-c3ccc([N+](=O)[O-])cc3)c(=O)c12 [Compound 123] | 5.1 µM | – |
| COc1ccc(-c2c(Cc3ccccc3)nn3c(=O)cc(-c4ccc([N+](=O)[O-])cc4)[nH]c23)cc1 [Compound 55] | – | IC50 [2]: 3.1 µM |

| Compound | IC50 [1] | also measured |
| --- | --- | --- |
| Nc1cccc(-c2cc(=O)n3nc(C(F)(F)F)c(-c4ccc(Cl)cc4)c3[nH]2)c1 [Compound 88] | 7 µM | – |
| COc1ccc(-c2cccc(-c3cc(=O)n4nc(C(F)(F)F)c(-c5ccc(Cl)cc5)c4[nH]3)c2)cn1 [Compound 31] | 1.5 µM | – |
| CN(C)C(=O)c1ccc(-c2cc(=O)n3nc(Cc4ccccc4)c(-c4ccc(Cl)cc4)c3[nH]2)cc1 [Compound 56] | 3.2 µM | IC50 [2]: 2.6 µM |
| O=c1cc(-c2ccc(Cl)cc2)[nH]c2c(-c3ccc(Cl)cc3)c(C(F)(F)F)nn12 [Compound 25] | 1.4 µM | – |
| c1nc(C2CCCNC2)cc(N2C[C@@H]3C[C@@H]4C[C@H](C3)N[C@@H]2C4)n1 (stereo partly shown) [Compound 143] | – | inhibition at 10 µM (20 nM assay, 10 μM concentration): ~31% |
| O=c1cc(-c2ccc([N+](=O)[O-])cc2)[nH]c2c(-c3ccc(Cl)c(Cl)c3)c(C3CC3)nn12 [Compound 27] | 1.4 µM | – |
| O=c1cc(-c2cccc(Oc3cc(F)cc(F)c3)c2)[nH]c2c(-c3ccc(Cl)c(Cl)c3)c(C(F)(F)F)nn12 [Compound 2] | 0.33 µM | – |
| CC(C)(C)c1nn2c(=O)cc(-c3cccc(C(=O)O)c3)[nH]c2c1-c1ccc(Cl)cc1 [Compound 86] | 6.6 µM | – |
| O=c1c(Cl)c(-c2ccc([N+](=O)[O-])cc2)[nH]c2c(-c3ccc(Cl)cc3)c(Cc3ccccc3)nn12 [Compound 24, 2-benzyl-6-chloro-3-(4-chlorophenyl)-5-(4-nitrophenyl)-4H-pyrazolo[1,5-a]pyrimidin-7-one] | 1.3 µM | IC50 [2]: 1.4 µM |
| Cc1cccc(N2C(=O)/C(=C/c3cc([N+](=O)[O-])cc(Br)c3O)SC2=S)c1 [Compound 115] | – | IC50 [2]: 1.1 µM |
| O=c1cc(-c2ccc([N+](=O)[O-])cc2)[nH]c2c(-c3cccc4ccccc34)c(Cc3ccccc3)nn12 [Compound 20] | 1.1 µM | – |
| O=c1cc(-c2cccc(-c3cccnc3)c2)[nH]c2c(-c3ccc(Cl)c(Cl)c3)c(C(F)(F)F)nn12 [Compound 1] | 0.25 µM | – |
| CC(c1ccccc1)c1cc(=O)n2nc(C(F)(F)F)c(-c3ccc(Cl)cc3)c2[nH]1 (stereo not shown) [Compound 45] | 2.3 µM | – |
| O=C(COC(=O)c1cc2ccccc2[nH]1)NCCSc1ccc(Cl)cc1 [Compound 139] | 19 µM | – |
| O=c1cc(-c2ccc([N+](=O)[O-])cc2)[nH]c2c(-c3ccc(Cl)c(Cl)c3)c(-c3ccccc3)nn12 [Compound 5] | 0.58 µM | – |
| N#Cc1ccc(-c2cc(=O)n3nc(C4CCOCC4)c(-c4ccc(Cl)cc4)c3[nH]2)cc1 [Compound 112] | 20 µM | – |
| Cc1nn2c(=O)cc(-c3ccc(NC(=O)Cc4ccccc4)cc3)[nH]c2c1-c1ccc(Cl)cc1 [Compound 41] | 1.9 µM | – |
| CCC(C)(C)C1CCc2c(sc3c2C(=O)NC(c2cc(OC)c(O)c([N+](=O)[O-])c2)N3)C1 (stereo not shown) [Compound 113] | 0.56 µM | – |
| O=c1cc(-c2ccc([N+](=O)[O-])cc2)[nH]c2c(-c3ccc(Cl)cc3)c(CO)nn12 [Compound 90] | 7.8 µM | – |
| Cc1nn2c(=O)cc(-c3ccc([N+](=O)[O-])cc3)[nH]c2c1C1CCCC1 [Compound 110] | 19 µM | – |
